Reference: US11028088B2, “Modulators of BTK proteolysis and methods of use” (Yale University, priority 2018, dated 2021)
Where two headings read alike, the source gives them in different places.

Tests used:
[1] = molecular target: BTK (Homo sapiens, UniProt Q06187); assay: BTK degradation in NAMALWA cells (immunoblot); type: cell-based; set-up: host or cells: NAMALWA; conditions: NAMALWA cells; for DC50: concentration needed to degrade 50% of the total pool of BTK; for Max: maximal BTK degradation; for ability to degrade BTK: dose escalation, 24 h
Description: NAMALWA and Jurkat cell lines were purchased from ATCC and cultured according to supplier guidelines at 37° C. […] Wild-type and C481S BTK XLA cell lines were cultured as previously described (39). Written, informed consent was obtained prior to the collection of cells from CLL patients using the IWCLL2008 criteria. Isolation of mononuclear cells from peripheral blood was prepared using density gradient centrifugation. B-cells were then negatively selected ([…] Technologies). […] They were maintained at 37° C. in 5% CO2.
Lysates were spun at 15,000×g for 10 min at 4° C. and supernatant was quantified for total protein content using the Pierce BCA Protein Assay (Thermo Fisher Scientific).
Either anti-rabbit or anti-mouse HRP-conjugated secondary antibodies (Pierce) were incubated with the membranes for 1 h at room temperature at 1:10,000 dilutions in 5% non-fat milk in IX TBS-T. Imaging was performed using the ECL Prime chemiluminescent western blot detection reagents (Amersham) followed by visualization with the Bio-Rad ChemiDoc imaging instrument. All western blots were subsequently processed and quantified using the accompanying Bio-Rad Image Lab software. […] All antibodies were used at 1:1,000 dilutions in 5% non-fat milk in 1×TBS-Tween (TBS-T) or Blotto blocker (Thermo Scientific) unless otherwise noted in supplier specifications.

[2] = molecular target: T1, HER3 (Homo sapiens, UniProt P21860); assay: HER3/ERBB3 degradation (western blot, OVCAR8 cells); type: cell-based
T1 construct: endogenous in cells; host or cells: OVCAR8
Description: FIG. 10 illustrates a Western blot of Compound 102-related degradation of ERBB3.
In various embodiments, treatment with PROTAC was performed in one of two ways: 1) For experiments involving >16 h exposure to compound, a 1000× stock was added to cells followed by gentle agitation; 2) For shorter treatments, a 2× stock was added to an equal volume of cells to ensure uniform drug exposure. For immortalized cell lines, 2×10^6 cells per treatment condition were collected and washed once with ice cold PBS (IX), followed by lysis in buffer containing 20 mM Tris [pH 8.0], 0.25% sodium deoxycholate, 1% Triton X-100, supplemented with protease (Roche) and phosphatase inhibitors (10 mM NaF, 2 mM Na3VO4, 10 mM β-glycerophosphate, 10 mM Na-pyrophosphate). Lysates were spun at 15,000×g for 10 min at 4° C. and supernatant was quantified for total protein content using the Pierce BCA Protein Assay (Thermo Fisher Scientific). 30 μg of protein was loaded onto 12% SDS-PAGE gels or 4-15% Mini-PROTEAN TGX precast gradient gels (Bio-Rad), transferred onto nitrocellulose membranes, and probed with the specified primary antibodies overnight with rocking at 4° C. in 1×TBS-T containing 5% non-fat milk.
Either anti-rabbit or anti-mouse HRP-conjugated secondary antibodies (Pierce) were incubated with the membranes for 1 h at room temperature at 1:10,000 dilutions in 5% non-fat milk in IX TBS-T. Imaging was performed using the ECL Prime chemiluminescent western blot detection reagents (Amersham) followed by visualization with the Bio-Rad ChemiDoc imaging instrument. All western blots were subsequently processed and quantified using the accompanying Bio-Rad Image Lab software. Primary antibodies used were: Anti-actin antibody (Cat. #MA 1-744) purchased from ThermoFisher Scientific; anti-BTK (Cat. #8547), anti-pBTK (Y223, Cat. #5082), anti-ITK (Cat. #2380), anti-GAPDH (Cat. #5179), anti-IKZF1 (Cat. #9034), and anti-IKZF3 (Cat. #15103) antibodies purchased from Cell Signaling Technology. All antibodies were used at 1:1,000 dilutions in 5% non-fat milk in 1×TBS-Tween (TBS-T) or Blotto blocker (Thermo Scientific) unless otherwise noted in supplier specifications.

Sequence of BTK (Q06187 whole entry): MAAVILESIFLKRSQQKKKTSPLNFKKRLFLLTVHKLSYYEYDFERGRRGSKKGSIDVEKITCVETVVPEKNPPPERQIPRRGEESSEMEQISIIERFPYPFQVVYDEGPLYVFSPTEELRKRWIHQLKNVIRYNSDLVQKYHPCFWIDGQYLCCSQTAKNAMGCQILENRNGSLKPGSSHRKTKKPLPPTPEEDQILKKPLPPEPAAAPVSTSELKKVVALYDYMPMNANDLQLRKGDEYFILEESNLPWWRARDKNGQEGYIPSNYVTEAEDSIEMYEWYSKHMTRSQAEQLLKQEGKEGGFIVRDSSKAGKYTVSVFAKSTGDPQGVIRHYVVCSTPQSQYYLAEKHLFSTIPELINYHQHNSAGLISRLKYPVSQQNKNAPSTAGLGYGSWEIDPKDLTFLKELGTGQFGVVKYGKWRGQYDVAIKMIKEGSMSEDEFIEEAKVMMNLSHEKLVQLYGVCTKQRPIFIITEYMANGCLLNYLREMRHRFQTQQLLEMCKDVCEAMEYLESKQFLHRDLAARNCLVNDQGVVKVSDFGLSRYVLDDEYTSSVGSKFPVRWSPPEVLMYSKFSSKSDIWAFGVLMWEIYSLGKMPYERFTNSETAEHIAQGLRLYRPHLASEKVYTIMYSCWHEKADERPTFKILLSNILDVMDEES
T1 sequence (P21860 20-1342): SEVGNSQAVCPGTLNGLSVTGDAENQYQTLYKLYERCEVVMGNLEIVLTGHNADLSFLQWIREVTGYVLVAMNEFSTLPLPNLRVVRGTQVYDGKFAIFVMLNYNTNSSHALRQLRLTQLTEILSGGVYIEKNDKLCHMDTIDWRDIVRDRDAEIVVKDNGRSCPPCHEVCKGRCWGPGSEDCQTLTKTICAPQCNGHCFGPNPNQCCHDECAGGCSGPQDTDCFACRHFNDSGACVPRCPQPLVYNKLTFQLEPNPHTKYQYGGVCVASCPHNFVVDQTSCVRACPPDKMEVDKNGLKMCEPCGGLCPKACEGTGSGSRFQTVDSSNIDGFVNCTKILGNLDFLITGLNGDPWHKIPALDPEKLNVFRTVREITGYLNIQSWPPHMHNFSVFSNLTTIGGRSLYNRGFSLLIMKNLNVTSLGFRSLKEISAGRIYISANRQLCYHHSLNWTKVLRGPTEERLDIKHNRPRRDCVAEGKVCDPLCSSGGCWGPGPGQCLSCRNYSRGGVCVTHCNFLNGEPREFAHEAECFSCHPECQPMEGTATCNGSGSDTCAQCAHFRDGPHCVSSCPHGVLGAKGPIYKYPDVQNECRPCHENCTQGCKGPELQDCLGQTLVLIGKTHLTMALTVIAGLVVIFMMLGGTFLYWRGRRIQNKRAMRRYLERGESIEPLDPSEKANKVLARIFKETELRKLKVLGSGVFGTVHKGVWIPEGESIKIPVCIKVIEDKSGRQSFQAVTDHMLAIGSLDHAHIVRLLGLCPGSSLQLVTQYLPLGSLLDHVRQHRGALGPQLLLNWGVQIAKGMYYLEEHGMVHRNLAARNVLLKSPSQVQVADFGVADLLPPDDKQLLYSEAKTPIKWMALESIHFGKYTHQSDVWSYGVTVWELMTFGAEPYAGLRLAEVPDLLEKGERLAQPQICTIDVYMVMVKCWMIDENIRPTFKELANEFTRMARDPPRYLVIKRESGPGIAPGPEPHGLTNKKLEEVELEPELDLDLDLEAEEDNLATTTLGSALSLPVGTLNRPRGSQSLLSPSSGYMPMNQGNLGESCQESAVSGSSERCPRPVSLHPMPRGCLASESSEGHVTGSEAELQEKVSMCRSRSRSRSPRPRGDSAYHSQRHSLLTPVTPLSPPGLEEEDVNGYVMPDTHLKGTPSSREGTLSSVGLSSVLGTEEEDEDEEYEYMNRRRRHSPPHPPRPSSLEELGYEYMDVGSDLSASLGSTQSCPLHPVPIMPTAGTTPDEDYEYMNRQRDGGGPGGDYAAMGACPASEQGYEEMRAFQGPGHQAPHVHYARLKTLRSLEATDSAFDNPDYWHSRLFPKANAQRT

SMILES | DC50 ([1]; read-out: DC50) [µM] | Max ([1]; at 1.0 μM) [%] | HER3 Degradation [2] | Max ([1]; at 2.5 μM) [%] | degradation of BTK at 1.0 μM ([1]; 1.0 μM) | DC50 [1] | ability to degrade BTK [1]
Cc1ncsc1-c1ccc(CNC(=O)[C@@H]2C[C@@H](O)CN2C(=O)[C@@H](NC(=O)COCCOCCOCCOCCCCCCN2CCC(n3nc(-c4ccc(Oc5ccccc5)cc4)c4c(N)ncnc43)CC2)C(C)(C)C)cc1 [Compound 115, (2S,4R)-1-((S)-22-(4-(4-amino-3-(4-phenoxyphenyl)-1H-pyrazolo[3,4-d]pyrimidin-1-yl)piperidin-1-yl)-2,2-dimethyl-5-oxo-7,10,13,16-tetraoxa-4-azadocosanecarbonyl)-4-hydroxy-N-(4-(4-methylthiazol-5-yl)benzyl)pyrrolidine-2-carboxamide] | 0.231 | 32 | No | – | – | – | –
Nc1ncnc2c1c(-c1ccc(Oc3ccccc3)cc1)nn2C1CCN(CCCOCCCOCCC(=O)Nc2cccc3c2C(=O)N(C2CCC(=O)NC2=O)C3=O)CC1 (stereo not shown) [Compound 103, 3-(3-(3-(4-(4-amino-3-(4-phenoxyphenyl)-1H-pyrazolo[3,4-d]pyrimidin-1-yl)piperidin-1-yl)propoxy)propoxy)-N-(2-(2,6-dioxopiperidin-3-yl)-1,3-dioxoisoindolin-4-yl)propanamide] | 0.0683 | 95 | No | – | – | – | –
Cc1ncsc1-c1ccc(CNC(=O)[C@@H]2C[C@@H](O)CN2C(=O)[C@@H](NC(=O)COCCOCCOCCOCCN2CCC(n3nc(-c4ccc(Oc5ccccc5)cc4)c4c(N)ncnc43)CC2)C(C)(C)C)cc1 [Compound 109, (2S,4R)-1-((S)-17-(4-(4-amino-3-(4-phenoxyphenyl)-1H-pyrazolo[3,4-d]pyrimidin-1-yl)piperidin-1-yl)-2-tert-butyl-4-oxo-6,9,12,15-tetraoxa-3-azaheptadecane)-4-hydroxy-N-(4-(4-methylthiazol-5-yl)benzyl)pyrrolidine-2-carboxamide] | 0.278 | – | No | 73 | – | – | –
Nc1ncnc2c1c(-c1ccc(Oc3ccccc3)cc1)nn2C1CCN(CCCCCCOCCOCC(=O)Nc2cccc3c2C(=O)N(C2CCC(=O)NC2=O)C3=O)CC1 (stereo not shown) [Compound 104, 2-[2-[6-[4-[4-amino-3-(4-phenoxyphenyl)pyrazolo[3,4-d]pyrimidin-1-yl]-1-piperidyl]hexoxy]ethoxy]-N-[2-(2,6-dioxo-3-piperidyl)-1,3-dioxo-isoindolin-4-yl]acetamide] | 0.0806 | 96 | No | – | nearly complete degradation | – | –
Cc1ncsc1-c1ccc(CNC(=O)[C@@H]2C[C@@H](O)CN2C(=O)[C@@H](NC(=O)CCCCCOCCOCCOCCOCCCCCCN2CCC(n3nc(-c4ccc(Oc5ccccc5)cc4)c4c(N)ncnc43)CC2)C(C)(C)C)cc1 [Compound 119, (2S,4R)-1-((S)-26-(4-(4-amino-3-(4-phenoxyphenyl)-1H-pyrazolo[3,4-d]pyrimidin-1-yl)piperidin-1-yl)-2,2-dimethyl-5-oxo-11,14,17,20-tetraoxa-4-azahexacosanecarbonyl)-4-hydroxy-N-(4-(4-methylthiazol-5-yl)benzyl)pyrrolidine-2-carboxamide] | – | – | No | – | – | No Degradation | –
Nc1ncnc2c1c(-c1ccc(Oc3ccccc3)cc1)nn2C1CCN(CCOCCOCC(=O)Nc2cccc3c2C(=O)N(C2CCC(=O)NC2=O)C3=O)CC1 (stereo not shown) [Compound 101, 2-(2-(2-(4-(4-amino-3-(4-phenoxyphenyl)-1H-pyrazolo[3,4-d]pyrimidin-1-yl)piperidin-1-yl)ethoxy)ethoxy)-N-(2-(2,6-dioxopiperidin-3-yl)-1,3-dioxoisoindolin-4-yl)acetamide] | – | – | No | – | – | No Degradation | inability to degrade BTK
Cc1ncsc1-c1ccc(CNC(=O)[C@@H]2C[C@@H](O)CN2C(=O)[C@@H](NC(=O)CCCCCOCCOCCOCCOCCOCCCCCCN2CCC(n3nc(-c4ccc(Oc5ccccc5)cc4)c4c(N)ncnc43)CC2)C(C)(C)C)cc1 [Compound 120, (2S,4R)-1-((S)-29-(4-(4-amino-3-(4-phenoxyphenyl)-1H-pyrazolo[3,4-d]pyrimidin-1-yl)piperidin-1-yl)-2,2-dimethyl-5-oxo-11,14,17,20,23-pentaoxa-4-azanonacosanecarbonyl)-4-hydroxy-N-(4-(4-methylthiazol-5-yl)benzyl)pyrrolidine-2-carboxamide] | – | – | No | – | – | No Degradation | –
Nc1ncnc2c1c(-c1ccc(Oc3ccccc3)cc1)nn2C1CCN(CCOCC(=O)Nc2cccc3c2C(=O)N(C2CCC(=O)NC2=O)C3=O)CC1 (stereo not shown) [Compound 100, 2-(2-(4-(4-amino-3-(4-phenoxyphenyl)-1H-pyrazolo[3,4-d]pyrimidin-1-yl)piperidin-1-yl)ethoxy)-N-(2-(2,6-dioxopiperidin-3-yl)-1,3-dioxoisoindolin-4-yl)acetamide] | – | – | No | – | – | No Degradation (n = 4) | inability to degrade BTK
Cc1ncsc1-c1ccc(CNC(=O)[C@@H]2C[C@@H](O)CN2C(=O)[C@@H](NC(=O)COCCCCCOCCCCCCN2CCC(n3nc(-c4ccc(Oc5ccccc5)cc4)c4c(N)ncnc43)CC2)C(C)(C)C)cc1 [Compound 111, (2S,4R)-1-((S)-2-(2-(5-(6-(4-(4-amino-3-(4-phenoxyphenyl)-1H-pyrazolo[3,4-d]pyrimidin-1-yl)piperidin-1-yl)hexyloxy)pentyloxy)acetamido)-3,3-dimethylbutanoyl)-4-hydroxy-N-(4-(4-methylthiazol-5-yl)benzyl)pyrrolidine-2-carboxamide] | 0.144 | 45 | No | – | – | – | –
Cc1ncsc1-c1ccc(CNC(=O)[C@@H]2C[C@@H](O)CN2C(=O)[C@@H](NC(=O)COCCOCCOCCOCCN2CCN(C3CCC(n4nc(-c5ccc(Oc6ccccc6)cc5)c5c(N)ncnc54)CC3)CC2)C(C)(C)C)cc1 (stereo partly drawn) [Compound 114, (2S,4R)-1-((S)-17-(4-(4-(4-amino-3-(4-phenoxyphenyl)-1H-pyrazolo[3,4-d]pyrimidin-1-yl)cyclohexyl)piperazin-1-yl)-2-tert-butyl-4-oxo-6,9,12,15-tetraoxa-3-azaheptadecane)-4-hydroxy-N-(4-(4-methylthiazol-5-yl)benzyl)pyrrolidine-2-carboxamide] | 0.248 | 30 | No | – | – | – | –
Nc1ncnc2c1c(-c1ccc(Oc3ccccc3)cc1)nn2C1CCN(CCCCCCOCCCCCCOCC(=O)Nc2cccc3c2C(=O)N(C2CCC(=O)NC2=O)C3=O)CC1 (stereo not shown) [Compound 107, 2-(6-(6-(4-(4-amino-3-(4-phenoxyphenyl)-1H-pyrazolo[3,4-d]pyrimidin-1-yl)piperidin-1-yl)hexyloxy)hexyloxy)-N-(2-(2,6-dioxopiperidin-3-yl)-1,3-dioxoisoindolin-4-yl)acetamide] | 0.0985 | 98 | No | – | – | – | –
C=CC(=O)Nc1cc(-c2nn(C3CCN(CCCOCCCOCCC(=O)Nc4cccc5c4C(=O)N(C4CCC(=O)NC4=O)C5=O)CC3)c3ncnc(N)c23)ccc1Oc1ccccc1 (stereo not shown) [Compound 121, N-(5-(4-amino-1-(1-(3-(3-(3-(2-(2,6-dioxopiperidin-3-yl)-1,3-dioxoisoindolin-4-ylamino)-3-oxopropoxy)propoxy)propyl)piperidin-4-yl)-1H-pyrazolo[3,4-d]pyrimidin-3-yl)-2-phenoxyphenyl)acrylamide] | – | – | No | – | – | No Degradation | –
